Test results published in US6967205B1, “Compounds with antibacterial and antiparasitic properties” (New Pharma Research Sweden AB, priority 1999, dated 2005).
In brackets after ≈: the same amount, converted by molar mass. Several values for one entry are separate records, joined by “and”; a condition that tells them apart may be missing. Equal entries are not always repeated.

How the values were obtained:
[1] = system: E. mitis, E. hagani, E. praecox, E. acervulina, E. maxima, E. necatrix, E. tenella and E. brunetti; test: Prophylactic anticoccidial effect, additional trials in chickens of Habbared X breed (8 Eimeria strains); format: in vivo; conditions: B700 100 ppm; for anticoccidial activity (in words): JA 3 200 ppm in feed from day 8, infected day 11; for increased body weight gain as compared to the Coxistac treated group / total number of oocysts during the treatment compared to Coxistac group: JA 3 200 ppm, Coxistac 100 ppm
Protocol: In yet another evaluation of the prophylactic anticoccidial effect of the present compounds, additional trials on chickens of Habbared X breed were performed. The same test protocol as the one previously employed for this breed of chickens was used, albeit with the following following modifications: • i) On day 8 after hatch, the chickens received feed containing B700 (100 ppm), JA 3 (200 ppm) or Coxistac (100 ppm); • ii) On day 11 after hatch, the chickens were infected orally by oocysts containing a mixture of 8 mature sporulated strains, namely E. mitis, E. hagani, E. praecox, E. acervulina, E. maxima, E. necatrix, E. tenella and E. brunetti. The results of this evaluation were slightly unexpected.

[2] = system: Micrococcus Luteus (ATCC 9341); test: M.I.C. by broth dilution method (NCCLS 1988), gram-positive bacteria; format: cell-based; conditions: ATCC9341, in vitro broth dilution, read-out: M.I.C. values Microc. Luteus
Protocol: (§1) The antibacterial activity of the present compounds was investigated by in vitro evaluation of their M.I.C. (Minimum Inhibitory Concentration) values. The evaluation was conducted in complete accordance with the “Broth dilution method”, as outlined by the U.S. National Committee for Clinical Laboratory Standards “NCCLS 1988”.
(§2) Solutions of the present compounds were prepared by dissolving 0.01 g of a test compound in either 10% KOH (aq) or a 10% KOH/DMF mixture, after which sterile, distilled H2O was added up to a total volume of 10 ml, thereby yielding a test compound concentration of 1 000 μg/ml.
(§3) In this evaluation, the antibacterial activity of the present compounds and enrofloxacin as reference compound was tested against seven strains of gram-positive bacteria, namely Bacillus subtilus (ATCC 6633), Bacillus cereus, Streptococcus faecium, Micrococcus Luteus (ATCC 9341), Staph. aureus (ATCC 29737), Staph. epidermidis (ATCC 12228) and Staphylococcus (ATCC 6538).

Bacillus cereus = test: as above; format: cell-based; conditions: in vitro broth dilution
Protocol: as §1, §2, §3

[3] = system: Staph. aureus (ATCC 29737); test: as above; format: cell-based; conditions: Staphylococcus aureus, ATCC29737, in vitro broth dilution
Protocol: as §1, §2, §3

[4] = system: Staph. epidermidis (ATCC 12228); test: as above; format: cell-based; conditions: Staphylococcus epidermidis, ATCC12228, in vitro broth dilution
Protocol: as §1, §2, §3

[5] = system: Bacillus subtilus (ATCC 6633); test: as above; format: cell-based; conditions: ATCC6633, in vitro broth dilution
Protocol: as §1, §2, §3

[6] = system: Staphylococcus (ATCC 6538); test: as above; format: cell-based; conditions: ATCC6538, in vitro broth dilution, read-out: M.I.C. values Staph. (ATCC 6538)
Protocol: as §1, §2, §3

Streptococcus faecium = test: as above; format: cell-based; conditions: Enterococcus faecium, in vitro broth dilution, read-out: M.I.C. values Streptoc. faecium
Protocol: as §1, §2, §3

M. gallisepticum = test: M.I.C. against Mycoplasma in microtitre plates (Tanner and Wu); format: cell-based; conditions: in vitro; for MIC: Mycoplasmoides gallisepticum
Protocol: The M.I.C. values of the compounds JA 1, JA 3, JA 5, JA 12, JA 42 and JA 43 were determined in vitro against M. gallisepticum. Enrofloxacin, tylosin and oxytetracyclin were used as reference compounds. The tested compounds were all stored and applied as solutions in distilled water. The M.I.C. evaluation was performed in microtitre plates, and the methodology employed was basically that of Tanner and Wu (Avian Disease, 36:714-717 (1992)).

[7] = system: gram-negative bacteria (E. coli, KL. Pnemonia, Bordetella bronchiseptic, Salmonella typhi, Salmonella spp., Proteus spp., Pasterulla Duck, Pasterulla Camel); test: M.I.C. by broth dilution method, gram-negative bacteria; format: cell-based; conditions: eleven gram-negative strains
Protocol: as §1, §2
In the same manner as above, the M.I.C. values of the present compounds JA 3, JA 5, JA 12, JA 42, JA 73 and enrofloxacin as reference compound were investigated also on gram-negative bacteria. The gram-negative bacteria used were E. coli (ATCC 25922), E. Coli (ATCC 8739), E. Coli (ATCC 10536), E. Coli Pathogenic, KL. Pnemonia (ATCC 10031), Bordetella bronchiseptic (ATCC 4617), Salmonella typhi, Salmonella spp., Proteus spp., Pasterulla Duck and Pasterulla Camel.

T. evansi = test: Antitrypanosomal activity in vivo in white albino rats (Giemsa blood smears); conditions: individual animals
Protocol: The antitrypanosomal activity of the present compounds was evaluated in vivo on 40 white albino rats. The rats were divided into 4 groups of 10 rats each. The rats were then inoculated intraperitoneally with 10^3 organisms of T. evansi (isolated from blood of naturally infected camels) in accordance with known methodology (see Kolmer, J. A., J. Infect. Dis., 17:78-95 (1915)). The progress of the infection was monitored with the aid of standard Giemsa procedure (see Cruickshank, R., Handbook of Bacteriology, E and S Livingstone Ltd., Edinborough and London, 1961), whereby peripheral blood samples from the rats were examined under microscope. The number of Trypanosoma organisms in every blood sample was calculated and classified as follows (the numbers below are given for fields examined on a microscope slide): • +++=>10 organisms • ++=5-10 organisms • +=1-4 organisms • 0=no organisms detected
On day 1 post infection, each group of rats was subcutaneously injected with a single dose of tested compound in an amount of 50.0 mg/kg body weight. The following drugs were administered:
Group #4: saline solution (control group)

Row | MIC (M. gallisepticum; microtitre plates) [mg/L] | SMILES | MIC [2] [mg/L] | MIC (Bacillus cereus) [mg/L] | MIC [3] [mg/L] | MIC [4] [mg/L] | MIC [5] [mg/L] | MIC [6] [mg/L] | MIC (Streptococcus faecium) [mg/L] | antibacterial activity against gram-negative bacteria compared to that of enrofloxacin [7] | also measured
1 |  | O=C(O)c1cn(C2CC2)c2cc(N3CCN(C(=O)Nc4ccc([N+](=O)[O-])cc4)CC3)c(F)cc2c1=O [B700, 1-cyclopropyl-6-fluoro-7-{4-[(4-nitroanilino)carbonyl]-1-piperazinyl}-4-oxo-1,4-dihydro-3-quinolinecarboxylic acid] |  |  |  |  |  |  |  |  | anticoccidial activity (in words) [1]: significant anticoccidial activity; increased body weight gain as compared to the Coxistac treated group [1]: approximately 10%; total number of oocysts during the treatment compared to Coxistac group [1]: higher than for the group treated with Coxistac
2 | 0.06 (≈ 0.167 µM) | CCN1CCN(c2cc3c(cc2F)c(=O)c(C(=O)O)cn3C2CC2)CC1 [Enrofloxacin, enrofloxacin, reference compound] | 2 (≈ 5.56 µM) | 0.25 (≈ 0.696 µM) | 0.25 (≈ 0.696 µM) | 0.12 (≈ 0.334 µM) | 0.5 (≈ 1.39 µM) | 0.12 (≈ 0.334 µM) | 1 (≈ 2.78 µM) |  | 
3 | 0.03 (≈ 0.0636 µM) | O=C(O)c1cn(C2CC2)c2cc(N3CCN(S(=O)(=O)c4ccccc4)CC3)c(F)cc2c1=O [JA 1, 1-cyclopropyl-6-fluoro-4-oxo-7-[4-(phenylsulfonyl)-1-piperazinyl]-1,4-dihydro-3-quinolinecarboxylic acid] | 0.5 (≈ 1.06 µM) | 0.06 (≈ 0.127 µM) | 0.12 (≈ 0.255 µM) | 0.06 (≈ 0.127 µM) | 0.06 (≈ 0.127 µM) | 0.06 (≈ 0.127 µM) | 0.5 (≈ 1.06 µM) |  | antibacterial activity against M. gallisepticum (in words) (M. gallisepticum): high antibacterial activity
4 | 0.25 (≈ 0.488 µM) | O=C(O)c1cn(C2CC2)c2cc(N3CCN(S(=O)(=O)c4ccc(Cl)s4)CC3)c(F)cc2c1=O [JA 43, 7-{4-[(5-chloro-2-thienyl)sulfonyl]-1-piperazinyl}-1-cyclopropyl-6-fluoro-4-oxo-1,4-dihydro-3-quinolinecarboxylic acid] | 1 (≈ 1.95 µM) | 0.12 (≈ 0.234 µM) | 0.12 (≈ 0.234 µM) | 0.25 (≈ 0.488 µM) | 0.25 (≈ 0.488 µM) | 0.03 (≈ 0.0586 µM) | 1 (≈ 1.95 µM) |  | 
5 |  | O=C(O)c1cn(C2CC2)c2cc(NCC3CCCO3)c(F)cc2c1=O (stereo not shown) [JA 73, 1-cyclopropyl-6-fluoro-4-oxo-7-[(tetrahydro-2-furanylmethyl)amino]-1,4-dihydro-3-quinolinecarboxylic acid] | 2 (≈ 5.77 µM) | 0.06 (≈ 0.173 µM) | 0.12 (≈ 0.346 µM) | 0.12 (≈ 0.346 µM) | 0.12 (≈ 0.346 µM) | 0.06 (≈ 0.173 µM) | 0.5 (≈ 1.44 µM) | roughly equal to that of enrofloxacin | 
6 |  | CC(C)c1ccc(Nc2cc3c(cc2F)c(=O)c(C(=O)O)cn3C2CC2)cc1 [JA 74, 1-cyclopropyl-6-fluoro-7-(4-isopropylanilino)-4-oxo-1,4-dihydro-3-quinolinecarboxylic acid] | 2 (≈ 5.26 µM) | 0.12 (≈ 0.315 µM) | 0.12 (≈ 0.315 µM) | 0.12 (≈ 0.315 µM) | 0.12 (≈ 0.315 µM) | 0.12 (≈ 0.315 µM) | 2 (≈ 5.26 µM) |  | Number of T. evansi per examined field (T. evansi; day 1 post infection (day of dosing), single s.c. dose 50.0 mg/kg): + (+=1-4 organisms); Number of T. evansi per examined field (T. evansi; day 3 post infection, single s.c. dose 50.0 mg/kg on day 1, 50 mg/kg): ++ (++=5-10 organisms); Number of T. evansi per examined field (T. evansi; day 5 post infection, single s.c. dose 50.0 mg/kg on day 1, 50 mg/kg): +++ (+++=>10 organisms) and 0 (0=no organisms detected) (6×) and ++ (++=5-10 organisms) (2×) and + (+=1-4 organisms); Number of T. evansi per examined field (T. evansi; day 7 post infection, single s.c. dose 50.0 mg/kg on day 1, 50 mg/kg): dead and 0 (0=no organisms detected) (9×); Number of T. evansi per examined field (T. evansi; day 9 post infection, single s.c. dose 50.0 mg/kg on day 1, 50 mg/kg): dead and 0 (0=no organisms detected) (9×); Number of T. evansi per examined field (T. evansi; day 11 post infection, single s.c. dose 50.0 mg/kg on day 1, 50 mg/kg): dead and 0 (0=no organisms detected) (9×); Number of T. evansi per examined field (T. evansi; day 13 post infection, single s.c. dose 50.0 mg/kg on day 1, 50 mg/kg): dead and 0 (0=no organisms detected) (9×)
7 |  | CN(C)[C@@H]1C(=O)C(C(N)=O)=C(O)[C@@]2(O)C(=O)C3=C(O)c4c(O)cccc4[C@@](C)(O)[C@H]3[C@H](O)[C@@H]12 [Oxytetracyclin, oxytetracyclin, reference compound] |  |  |  |  |  |  |  |  | M.I.C. values against M. gallisepticum (M. gallisepticum; microtitre plates): 0.12
8 | 0.06 (≈ 0.0655 µM) | CC[C@H]1OC(=O)C[C@@H](O)[C@H](C)[C@@H](O[C@@H]2O[C@H](C)[C@@H](O[C@H]3C[C@@](C)(O)[C@@H](O)[C@H](C)O3)[C@H](N(C)C)[C@H]2O)[C@@H](CC=O)C[C@@H](C)C(=O)/C=C/C(C)=C/[C@@H]1CO[C@@H]1O[C@H](C)[C@@H](O)[C@@H](OC)[C@H]1OC [Tylosin, tylosin, reference compound] |  |  |  |  |  |  |  |  | 

Row | SMILES | MIC (M. gallisepticum; microtitre plates) [mg/L] | MIC [2] [mg/L] | MIC (Bacillus cereus) [mg/L] | MIC [3] [mg/L] | MIC [4] [mg/L] | MIC [5] [mg/L] | MIC [6] [mg/L] | MIC (Streptococcus faecium) [mg/L] | antibacterial activity against gram-negative bacteria compared to that of enrofloxacin [7] | also measured
9 | O=C(O)c1cn(C2CC2)c2cc(N3CCN(S(=O)(=O)c4ccc([N+](=O)[O-])cc4)CC3)c(F)cc2c1=O [JA 3, 1-cyclopropyl-6-fluoro-7-{4-[(4-nitrophenyl)sulfonyl]-1-piperazinyl}-4-oxo-1,4-dihydro-3-quinolinecarboxylic acid] | 0.06 (≈ 0.116 µM) | 1 (≈ 1.94 µM) | 0.06 (≈ 0.116 µM) | 0.06 (≈ 0.116 µM) | 0.01 (≈ 0.0194 µM) | 0.06 (≈ 0.116 µM) | 0.06 (≈ 0.116 µM) | 0.25 (≈ 0.484 µM) | roughly equal to that of enrofloxacin | anticoccidial activity (in words) [1]: significant anticoccidial activity; increased body weight gain as compared to the Coxistac treated group [1]: approximately 10%; total number of oocysts during the treatment compared to Coxistac group [1]: higher than for the group treated with Coxistac
10 | O=C(O)c1cn(C2CC2)c2cc(N3CCN(S(=O)(=O)c4ccc5ccccc5c4)CC3)c(F)cc2c1=O [JA 5, 1-cyclopropyl-6-fluoro-7-[4-(2-naphthylsulfonyl)-1-piperazinyl]-4-oxo-1,4-dihydro-3-quinolinecarboxylic acid] | 0.12 (≈ 0.23 µM) | 0.5 (≈ 0.959 µM) | 0.03 (≈ 0.0575 µM) | 0.06 (≈ 0.115 µM) | 0.01 (≈ 0.0192 µM) | 0.008 (≈ 0.0153 µM) | 0.06 (≈ 0.115 µM) | 0.12 (≈ 0.23 µM) | roughly equal to that of enrofloxacin | 
